From publication PMC3667675 (ChemMedChem, 2011)
Square brackets hold non-standard residues; d marks the D form. Peptide text beside a SMILES is read from it.

Assays:
[1] = target: MOR; format: binding; conditions: read-out: Ki (nM ± SEM) MOR; CHO membranes, [3H]DAMGO, mean ± SEM
[2] = test system: KOR; assay: Ligand-stimulated [35S]GTPγS binding assay, KOR expressing CHO cell membranes; format: biochemical; conditions: ratio of KB values
[3] = test system: DOR; assay: Radioligand binding assay, cloned DOR in CHO cell membranes, [3H]DPDPE; conditions: read-out: Ki (nM ± SEM) DOR, mean ± SEM
[4] = test system: C57Bl/6J mice; format: in vivo
[5] = target: KOR (Mus musculus, UniProt P33534); format: in vivo, C57Bl/6J mice; conditions: U50,488 10 mg/kg i.p.; 3 h pretreatment
[6] = target: MOR (Rattus norvegicus, UniProt P33535); assay: biochemical
[7] = test system: opioid receptors; format: in vivo, C57Bl/6J mice
[8] = test system: KOR; assay: Radioligand binding assay, cloned KOR in CHO cell membranes, [3H]diprenorphine; conditions: read-out: Ki (nM ± SEM) KOR, mean ± SEM

Sequence of MOR (Rattus norvegicus, UniProt P33535) (P33535 whole entry): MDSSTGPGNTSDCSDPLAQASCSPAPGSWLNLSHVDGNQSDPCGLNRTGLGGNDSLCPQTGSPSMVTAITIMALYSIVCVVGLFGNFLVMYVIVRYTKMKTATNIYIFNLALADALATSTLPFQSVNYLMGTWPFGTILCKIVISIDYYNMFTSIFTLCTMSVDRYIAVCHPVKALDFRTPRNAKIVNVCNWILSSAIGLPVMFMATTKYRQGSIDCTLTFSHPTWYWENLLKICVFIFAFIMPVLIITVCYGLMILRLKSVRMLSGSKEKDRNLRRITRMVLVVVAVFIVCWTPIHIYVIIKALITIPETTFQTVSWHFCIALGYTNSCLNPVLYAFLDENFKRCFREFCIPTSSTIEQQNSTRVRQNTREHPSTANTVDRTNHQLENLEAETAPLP
Sequence of KOR (Mus musculus, UniProt P33534) (P33534 whole entry): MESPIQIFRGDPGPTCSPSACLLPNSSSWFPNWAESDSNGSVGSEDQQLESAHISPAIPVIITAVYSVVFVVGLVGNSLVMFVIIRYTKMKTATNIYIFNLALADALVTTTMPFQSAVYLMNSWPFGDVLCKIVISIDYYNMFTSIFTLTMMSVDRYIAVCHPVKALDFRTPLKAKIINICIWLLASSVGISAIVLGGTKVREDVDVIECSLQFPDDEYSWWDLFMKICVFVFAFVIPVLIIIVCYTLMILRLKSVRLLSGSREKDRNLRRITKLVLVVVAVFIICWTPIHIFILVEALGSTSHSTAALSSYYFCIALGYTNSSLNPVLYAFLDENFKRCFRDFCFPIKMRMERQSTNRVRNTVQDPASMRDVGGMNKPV

C[C@@H]1NC(=O)[C@H](Cc2c[nH]c3ccccc23)NC(=O)[C@H](Cc2ccccc2)NC(=O)[C@H]2CCCN2C1=O [Peptide 2, cyclo[Ala-DPro-Phe-Trp]] (cyclo(A[dP]FW))
Ki [1]: 32.1 ± 3.9 nM
KOR antagonist potency relative to parent peptide 1 (more potent) [2]: 25 fold
Ki [3]: 8680 ± 1270 nM
Time of peak antinociceptive response ([4]; after i.c.v. administration): 30 min
ED50 (and 95% confidence interval), antinociception ([4]; i.c.v., at peak response, C57Bl/6J mice): 1.49 (0.39-7.41) nmol
KOR antagonist potency in vivo compared with parent peptide 1 [5]: somewhat more potent
Kb [6]: 7.3 ± 1.6 nM
Effect of naloxone pretreatment on peptide antinociception ([7]; naloxone 15 nmol i.c.v., 25 min prior, peptides 2 (3 nmol), 3 (10 nmol), 4 (0.3 nmol), 5 (30 nmol) i.c.v.): significantly antagonized
Reduction of antinociceptive activity by nor-BNI pretreatment ([7]; nor-BNI 10 mg/kg i.p., did not reach statistical significance): > 30%
Ki [8]: 8.03 ± 1.67 nM
